Results from patent publication US11839658B2, “Aminoglycoside derivatives and nano-assemblies thereof, including those with quorum sensing inhibitory function” (priority 2017, dated 2023).
Values after ≈ are worked out from the molar mass of the structure shown.

How the values were obtained:
[1] = test system: Pyocyanin released from PA14 bacteria (wild type); test: Pyocyanin assay on Pseudomonas aeruginosa; assay type: cell-based; conditions: 18 μg/mL Farnesal or Farnesol, 16 h, n=9
Method: Pyocyanin assay was used to quantify the amount of Pyocyanin molecule released from PA14 bacteria (wild type) which were grown aerobically for 16 hours. The Pyocyanin assay was performed as follows:
A single colony of PA14 was removed from agar plates after 16 hours of growth at 37° C. and transferred into 25 mL Erlenmeyer flasks with 10 mL of PPGAS (proteose peptone glucose ammonium salt medium which is composed of (1 g/L NH4Cl, 1.5 g/L KCl, 19 g/L Tris-HCl, 10 g/L peptone, glucose 5 g/L and 0.1 g/L MgSO4·7H2O, the medium was adjusted to pH 7.4, and sterilized before use). Following 16 hours of aerobic growth with shaking at 200 rpm and 37° C., cultures were centrifuged at 7.450 g, washed twice with 10 mL of fresh PPGAS medium, and resuspended to a final volume of 5 mL solution. Cultures were then diluted to a final OD600 of 0.02 and distributed into 24 well-plates, 1.5 mL each well.
Compounds Farnesal and Farnesol were diluted in DMSO, then added to wells containing PA14 bacteria, in 1:100 dilutions with a final DMSO concentration of 1% (v/v), so that the final concentration of Farnesal was 18 μg/mL, and of Farnesol was 18 μg/mL. […]
All cultures were incubated for an additional 16 h under aerobic conditions as mentioned above. […] OD520 was measured in the aqueous phase. […]

[2] = Dynamic light scattering (DLS): zeta-potential, mean diameter, PDI of nano-assemblies; assay type: physicochemical
[3] = test system: P. aeruginosa strain PA14 (wild type); test: MIC assay against Pseudomonas aeruginosa; assay type: cell-based; conditions: PA14, read-out: MIC-90 against PA14
Method: The minimum inhibitory concentration (MIC) of the of the tobramycin containing nano-assemblies of example 2 against the P. aeruginosa strain PA14 (wild type) was tested and compared to known MIC values of tobramycin.

[4] = test system: E. coli; conditions: literature value; cited from earlier work
[5] = test system: 24 hours old PA14 biofilm; test: Minimum Biofilm Eradicating Concentration (MBEC) assay; assay type: cell-based, Pseudomonas aeruginosa; conditions: 24 h old PA14 biofilm treated 24 hours
Method: Minimum Biofilm Eradicating Concentration (MBEC) assay was used to determine the minimum concentration of active agents at which a 24 hours old PA14 biofilm is completely eradicated. The MBEC assay was performed as follows: […]
The 96 well-plates were then kept at 37° C. without shaking for 24 hours to allow the forming of biofilm. Afterwards, the planktonic bacteria were removed, and the 24 hours old biofilm was washed twice with PBS, then fed with fresh PPGAS medium, and ready for the assay. […]
All cultures were incubated for an additional 24 hours at 37° C. without shaking. […] All cultures were then measured OD650, and the biofilm is considered to be completely eradicated once the resulting OD650 is equal or lower than OD650 of PPGAS medium.

Row | Compound | percentage inhibition of released Pyocyanin vs PA14 wt control [1] [%] | zeta-potential [2] [mV] | MIC90 [3] [µg/mL] | MIC-90 against E. coli (Dienstag and Neu) [4] [µg/mL] | Tobramycin concentration needed for complete biofilm eradication (MBEC) [5] [µg/mL]
1 | CC(C)=CCCC(C)=CCCC(C)=CC=O [Farnesal] | 5.85±3.10 | −33.8±0.5 |  |  | 
2 | CC(C)=CCCC(C)=CCCC(C)=CCO [Farnesol] | 12.29±7.35 |  |  |  | 
3 | NC[C@H]1O[C@H](O[C@H]2[C@H](O)[C@@H](O[C@H]3O[C@H](CO)[C@@H](O)[C@H](N)[C@H]3O)[C@H](N)C[C@@H]2N)[C@H](N)C[C@@H]1O [Tobramycin] |  |  | 6.25 to 12.5 (≈ 13.4 to 26.7 µM) | 6.25 (≈ 13.4 µM) | ≥ 100
